Reference: US4316889A, “Novel peptidyl-arginine aldehyde derivatives and process for the preparation thereof” (Richter Gedeon Vegyeszeti Gyar Rt., priority 1979, dated 1982)
Square brackets hold non-standard residues; d marks the D form. Peptide text beside a SMILES is read from it. * marks the point of attachment. d(aIle) = CC[C@H](C)[C@@H](N)C(=O)O; Bz = O=C(c1ccccc1)*

What was measured:
thrombin-time = assay: In vivo antithrombin activity after oral administration to dogs, measured in a Thromboelastograph; parameters: species or system dog; conditions: 50 mg./kg., for a period of two hours
Text: (§1) This effect is substantial not only at intravenous, intramuscular and subcutaneous but also at oral administration.

thrombin [1] = target: thrombin (Homo sapiens, UniProt P00734); conditions: Hungarian Patent No. 169,870; cited from earlier work
[2] = target: T1, US Standard Human Thrombin (Homo sapiens, UniProt P00734); assay: Antithrombin activity: amount of drug for tenfold increase of the thrombin-time of fibrinogen; type: biochemical; conditions: for Amount of drug required for tenfold increase of thrombin-time following dissolution of peptide, 0 hour: 0 hour after dissolution in TRIS/HCl buffer pH=7.4, bovine fibrinogen, thrombin 5 U/ml; for relative activity (ra), 20 hours: 20 hours in TRIS/HCl buffer, relative to H-D-Phe-Pro-Arg(COOH)-H at 0 hour = 100; for Amount of drug required for tenfold increase of thrombin-time following dissolution of peptide, 20 hours: 20 hours standing in TRIS/HCl buffer pH=7.4; for change of antithrombin potency upon standing in solution: TRIS/HCl buffer, pH=7.4
T1 construct: US Standard Human Thrombin; purchased NIH, Bethesda, Maryland, USA
Protocol: Antithrombin activity is defined by the amount of drug required for a tenfold increase of the thrombin-time of fibrinogen (thrombintime: time of clotting induced by thrombin).
Antithrombin activities were assayed in the following system:
0.5 percent bovine fibrinogen (0.2 ml). in 0.9 percent sodium chloride solution, peptide in TRIS/HCl buffer (0.1 ml., pH=7.4), and US Standard Human Thrombin (0.1 ml.) (NIH, Bethesda, Maryland, USA; 5 U/ml.). The clotting time of the system devoid of peptide is 15 seconds.

trypsin = conditions: literature (Kawamura et al.; Umezawa); cited from earlier work
plasmin = plasmin (Homo sapiens, UniProt P00747); conditions: literature (Kawamura et al.; Umezawa); cited from earlier work
Chain of plasmin (P00747 581-810 limits assumed, species assumed): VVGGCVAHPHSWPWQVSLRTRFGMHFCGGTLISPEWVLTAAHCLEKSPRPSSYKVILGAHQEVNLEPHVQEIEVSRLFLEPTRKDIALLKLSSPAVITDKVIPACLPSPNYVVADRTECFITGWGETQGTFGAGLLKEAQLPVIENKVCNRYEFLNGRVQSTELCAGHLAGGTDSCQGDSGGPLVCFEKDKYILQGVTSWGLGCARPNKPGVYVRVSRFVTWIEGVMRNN
Chain of plasmin (P00747 97-580 partner limits assumed, species assumed): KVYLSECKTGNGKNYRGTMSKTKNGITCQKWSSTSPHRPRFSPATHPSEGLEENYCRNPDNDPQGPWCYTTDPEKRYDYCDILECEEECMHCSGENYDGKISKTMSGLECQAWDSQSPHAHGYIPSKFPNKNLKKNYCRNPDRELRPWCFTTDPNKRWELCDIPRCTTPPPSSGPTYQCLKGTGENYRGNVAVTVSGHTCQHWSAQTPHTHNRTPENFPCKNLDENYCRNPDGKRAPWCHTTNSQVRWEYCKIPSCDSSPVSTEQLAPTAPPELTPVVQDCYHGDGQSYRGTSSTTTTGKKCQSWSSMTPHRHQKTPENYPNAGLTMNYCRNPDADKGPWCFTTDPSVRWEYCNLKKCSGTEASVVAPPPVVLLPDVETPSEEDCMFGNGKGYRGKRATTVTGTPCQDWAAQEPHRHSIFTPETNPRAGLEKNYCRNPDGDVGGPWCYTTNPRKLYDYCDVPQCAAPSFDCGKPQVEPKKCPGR

papain = target: T2, papain (Carica papaya, UniProt P00784); conditions: literature (Kawamura et al.; Umezawa); cited from earlier work
T2 sequence (P00784 134-345): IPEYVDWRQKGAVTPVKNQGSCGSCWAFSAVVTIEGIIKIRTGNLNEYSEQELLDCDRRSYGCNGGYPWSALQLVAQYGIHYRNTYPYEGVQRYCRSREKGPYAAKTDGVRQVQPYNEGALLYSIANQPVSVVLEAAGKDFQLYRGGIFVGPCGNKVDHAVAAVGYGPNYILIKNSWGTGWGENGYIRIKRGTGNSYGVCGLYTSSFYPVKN

thrombin [3] = assay: In vivo trials of antithrombin activity on five species; conditions: mouse, rat, rabbit, dog, monkey; intravenous, intramuscular, subcutaneous and oral administration
Text: as §1

Amount of drug required for tenfold increase of thrombin-time following dissolution of peptide, 0 hour [2]	relative activity (ra), 20 hours [2]	Amount of drug required for tenfold increase of thrombin-time following dissolution of peptide, 20 hours [2]	change of antithrombin potency upon standing in solution [2]	Compound	increase of thrombin-time in vivo (thrombin-time)	antithrombin activity (literature) (thrombin [1])	inhibition of trypsin (trypsin)	inhibition of plasmin (plasmin)	inhibition of papain (papain)	also measured
0.37 to 1.25 µg/mL	4	6.2 µg/mL	reduced	CC(=O)O.N=C(N)NCCC[C@@H](C=O)NC(=O)[C@@H]1CCCN1C(=O)[C@H](N)Cc1ccccc1 [H--D-Phe-- Pro--Arg--H . 2 CH3 COOH, D-phenylalanyl-L-prolyl-L-arginine aldehyde acetate]	practically no influence	marked antithrombin activity	–	–	–	–
0.35 to 0.95 µg/mL	5	6.0 µg/mL	reduced	Cl.N=C(N)NCCC[C@@H](C=O)NC(=O)[C@@H]1CCCN1C(=O)[C@H](N)Cc1ccccc1 [H--D-Phe-- Pro--Arg--H . 2HCl, D-phenylalanyl-L-prolyl-L-arginine aldehyde hydrochloride]	practically no influence	–	–	–	–	–
–	–	–	–	CC(=O)N[C@@H](CC(C)C)C(=O)N[C@@H](CC(C)C)C(=O)N[C@H](C=O)CCCNC(=N)N.Cl [acetyl-L-leucyl-L-leucyl-arginine aldehyde hydrochloride]	–	–	capable to inhibit	capable to inhibit	capable to inhibit	–
–	–	–	–	CC[C@H](C)[C@@H](NC(=O)c1ccccc1)C(=O)N1CCC[C@H]1C(=O)N[C@H](C=O)CCCNC(=N)N.Cc1ccc(S(=O)(=O)O)cc1 [benzoyl-D-allo-isoleucyl-L-prolyl-L-arginine aldehyde p-toluenesulfonate] (Bz-[d(aIle)]-Pro-Arg-aldehyde)	–	marked antithrombin activity	–	–	–	–
–	–	–	–	CCC(=O)N[C@@H](CC(C)C)C(=O)N[C@@H](CC(C)C)C(=O)N[C@H](C=O)CCCNC(=N)N.Cl [propionyl-L-leucyl-L-leucyl-arginine aldehyde hydrochloride]	–	–	capable to inhibit	capable to inhibit	capable to inhibit	–

Compound	Amount of drug required for tenfold increase of thrombin-time following dissolution of peptide, 0 hour [2]	relative activity (ra), 20 hours [2]	Amount of drug required for tenfold increase of thrombin-time following dissolution of peptide, 20 hours [2]	change of antithrombin potency upon standing in solution [2]	increase of thrombin-time in vivo (thrombin-time)	antithrombin activity (literature) (thrombin [1])	inhibition of trypsin (trypsin)	inhibition of plasmin (plasmin)	inhibition of papain (papain)	also measured
D-Phenylalanyl-L-prolyl-N^G -carboxyl-L-arginine aldehyde [H--D-Phe-- Pro--Arg(COOH)--H]	0.275 µg/mL	92	0.300 µg/mL	–	four to sixfold	–	–	–	–	relative activity (ra), 0 hour ([2]; 0 hour, activity of H-D-Phe-Pro-Arg(COOH)-H arbitrarily taken as 100): 100; antithrombin (enzyme inhibitory) activity compared with the free tripeptide aldehyde salt of corresponding sequence ([2]; thrombin-fibrinogen reaction, versus H-D-Phe-Pro-Arg-H hydrochloride or acetate): higher; in vivo antithrombin effect (thrombin [3]): substantial
